Results: US20200308619A1, “GENE CONSTRUCT AND BIOSENSOR FOR THE RAPID DETECTION OF AHL MOLECULES AND THE PATHOGENIC BACTERIA THAT PRODUCE SAME” (UNIVERSIDAD DE VALPARAISO, priority 2017, published 2020)

System: E. coli pUCPAO1RHL biosensor strain
Assay: Biosensor fluorescence emission (GFP) in response to AHL extract and copper
Format: cell-based, Escherichia coli
Conditions: copper by itself, no AHL
Experimental: The biosensing strain named E. coli pUCPAO1RHL that contains the gene construct of the invention, was used to evaluate its response to the presence of AHLs and the presence of copper. For the evaluation, AHLs were obtained from the bacterium Pseudomonas aeruginosa from a 12-hour bacterial culture in late exponential phase. For this, the supernatant was separated from the bacterial cells by centrifugation at 8,000 rpm for 15 minutes. An organic extraction with dichloromethane (DCM) from the supernatant was performed in a ratio of 70:30 (Supernatant: DCM). For this, 200 ml of supernatant and 85 ml of DCM were incorporated into a […] volume decantation flask. It was stirred vigorously, then left to settle at room temperature for 1 hour. […]
The biosensor strain (180 μL) was grown in the presence of 10 μL of AHL extract (obtained from the stationary phase of growth of P. aeruginosa) and in the presence of 500 μM of copper (such as CuSO4) in Luria Bertani liquid medium at 37° C. stirred in 96-well plates on a temperature controlled orbital shaker spectrofluorometer equipment (Tecan USA). During growth, turbidity was recorded at an absorbance of 600 nm and fluorescence at […] every 15 minutes, equivalent to one cycle of fluorescence emission measurement. […]

## O=S(=O)([O-])[O-].[Cu+2] [copper, CuSO4]
  inducing effect on fluorescence: did not show an obvious inducing effect of fluorescence
